Entries after “also recorded” stand apart in the source; their conditions may differ.
Experiments:
[1] = Metabolic stability in liver microsomes; type: in vitro ADME; conditions: cynomolgus monkey liver microsomes
[2] = Pharmacokinetics in mice (compound screening, IV/PO); type: in vivo, mouse; conditions: mouse (compound screening), PO3, 20 mg/kg
Method: Fig. S1. Optimized inhibitor reduces SOD1 aggregation. a, Mutant SOD1s induced WT-SOD1 aggregation. Testing the selected chemicals to check the inhibitory effect on SOD1 aggregation .HEK293 cells were transfected with MT-SOD1 vectors (A4V, G 93 A) and treated with selected chemicals (5 mM). After incubation, transfected cells were harvested with TNNI buffer and fixed with 0.04% glutaraldehyde (Glu) for 30min. Samples were separated using SDS-PAGE. b-c, PRG-A-04 inhibited SOD1 inclusions in SK-N-SH cells. (b) Cells expressing MT-SOD1 vectors were treated with PRG-A-04 ([…]) for 24 hr. After incubation, cells were fixed with 4 % PFA and observed under the fluorescence microscope. (c) Cells with SOD1 inclusions (white arrows; strong intensity of SOD1) were counted by photomicrographs and the percentages were shown with standard deviation (SD). For cell counting, ten fluorescence images were randomly selected. Counting of cells were performed by three independent observers, who were blinded to transfection or chemical treatment group; two-tailed Student’s t-test. NS; Not significant, ****P < 0.001, d, PRG-A- […]
degradationin blood as well as gastro-intestinal tract.IV; intravenous injected group, PO; Per Os administrated group e, […]
show cytotoxicity. To know the toxic effect of PRG-A-04 , human normal fibroblast (f) and neuron cells (g) were incubated with PRG -A-04 for 48 hr dose dependently and measured the viability through MTT assay .“Con” means Dimethyl sulfoxide (DMSO) -treated control . The data are normalized to DMSO-treated cells. n=3 independent experiments; two-tailed Student’s t-test.NS; Not significant, *P < 0.05, **P < 0.01, ***P < 0.005.

[3] = biological target: T1, GST-SOD1-G93A recombinant protein (MT-SOD1) (Homo sapiens, UniProt P00441, G94A); test: GST pull-down with LC-MS/MS of protein-bound compound; type: binding; conditions: GST pull-down and LC-MS/MS
T1 construct: made in house; host or cells: Escherichia coli BL21 (DE3), pCold GST vector
Method: To prepare a calibration curve within the PRG-A-04 concentration range of 1–50 ppb, standard solutions (1, 5, 10, 25, 50 ppb) were prepared by dilution with 90% methanol. GST, GST-SOD1 WT, and GST–SOD1-G93A recombinant proteins bound to GST agarose were incubated overnight with PRG-A-04 (20 μmol/L) in cold chamber (4 °C). The samples were washed three times to remove unbound PRG-A-04 from the proteins. The washed sample pellets were incubated with 90% methanol to elute the protein-bound PRG-A-04. The elutes from each sample were analyzed by LC/MS as follows. Both standard samples and control samples underwent the same sample processing procedures as the test samples. The LC–MS/MS analysis was performed on a Waters UPLC Acquity I-class plus system coupled to a Qtrap 6500 plus system (Sciex, Framingham, MA). An Aeris 3.6 μm 100 × 2.1 mm column (Phenomenex, Torrance, CA) was used for separation. The mobile phase consisted of solvent A (water containing 0.1% formic acid) and solvent B (acetonitrile containing 0.1% formic acid). Gradient elution was achieved as follows: […], 90% A, 10% B; 0.37–6.0 min, 55% A, 45% B; 6.0–7.0 min, 5% A, 95% B; 7.0–10.0 min, 90% A, 10% B. The flow rate was 0.4 mL/min. The column temperature was 40 °C, and the sample injection volume was 10 µL. After each injection, the autosampler syringe was washed with methanol. […]

T1 sequence (P00441 whole entry G94A): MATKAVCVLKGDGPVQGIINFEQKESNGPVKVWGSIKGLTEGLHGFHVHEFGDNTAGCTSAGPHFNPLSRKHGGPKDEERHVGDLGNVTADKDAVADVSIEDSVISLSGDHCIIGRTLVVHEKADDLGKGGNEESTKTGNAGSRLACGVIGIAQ

For `COc1cc(C=CCOC2Cc3cc4ccc(=O)oc4cc3OC2(C)C)ccc1[N+](=O)[O-]` (stereo not drawn) [PRG-A-04], the “extent of metabolism in liver microsomes” value [1] was “moderately metabolized; also recorded: metabolized significantly”, the bioavailability [2] was 63.78% and the “binding affinity to MT-SOD1 versus WT-SOD1” value [3] was “stronger binding affinity to MT-SOD1 than to WT-SOD1 protein”.

— article PMC12067741, “Inhibition of SOD1 trimerization is a novel drug target for ALS disease” (Translational Neurodegeneration, 2025)
